Structures can show the parent of a compound that is named as a salt. Where two headings read alike, the source gives them in different places.
How the values were obtained:
[1] = target: T1, human NTCP (Homo sapiens, UniProt Q14973); test: Screening taurocholate uptake assay (96-well, [14C]taurocholate, 10 µM drug)
T1 sequence (Q14973 1-349): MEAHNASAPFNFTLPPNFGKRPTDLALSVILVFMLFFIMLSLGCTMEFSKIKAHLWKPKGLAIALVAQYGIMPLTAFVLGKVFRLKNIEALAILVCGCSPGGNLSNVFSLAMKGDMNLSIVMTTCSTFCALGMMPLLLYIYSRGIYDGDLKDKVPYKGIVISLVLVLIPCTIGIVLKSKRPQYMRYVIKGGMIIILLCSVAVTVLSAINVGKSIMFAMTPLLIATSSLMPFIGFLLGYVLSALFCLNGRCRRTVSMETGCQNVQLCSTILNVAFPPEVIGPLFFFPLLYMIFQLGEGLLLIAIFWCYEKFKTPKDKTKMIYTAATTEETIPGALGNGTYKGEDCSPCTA

[2] = target: T1, human NTCP; test: Screening fluorescent competitive Myrcludex B-FITC binding assay (96-well, 10 µM drug)
[3] = combined ranking from functional and binding screening assays
[4] = screen, 10 µM drug, taurocholate uptake
[5] = screen, 10 µM drug, Myrcludex B-FITC binding
[6] = Prestwick library screen, 10 µM drug, B-score of taurocholate uptake
[7] = combined ranking from functional and binding assay B-scores
[8] = Prestwick library screen, 10 µM drug, B-score of Myrcludex B-FITC binding
[9] = Prestwick library screen, taurocholate uptake, 10 µM drug
[10] = ranking score beside the functional and binding assay B-scores of the screen
[11] = Prestwick library screen, Myrcludex B-FITC binding, 10 µM drug

| SMILES | B-score functional assay [1, 6] | Ranking score [1, 7] | B-score binding assay [2, 8] | B-score functional assay [1, 9] | Ranking score [1, 10] | B-score binding assay [2, 11] | other results |
| --- | --- | --- | --- | --- | --- | --- | --- |
| CC(C)/N=c1\cc2n(-c3ccc(Cl)cc3)c3ccccc3nc-2cc1Nc1ccc(Cl)cc1 [Clofazimine] | – | – | – | – | – | – | Ranking score [1, 3]: 436.188; B-score functional assay [1, 4]: -0.006; B-score binding assay [2, 5]: -0.74 |
| CCOC1O[C@H]([C@@H](COCc2ccccc2)OCc2ccccc2)[C@H](OCc2ccccc2)[C@H]1O (stereo partly drawn) [Tribenoside] | – | – | – | – | – | – | Ranking score [1, 3]: 300.985; B-score functional assay [1, 4]: -1.789; B-score binding assay [2, 5]: -0.023 |
| Cc1scc2c1N(C(=O)CN1CCN(C)CC1)c1ccccc1NC2=O [Telenzepine dihydrochloride] | 0.592 | 1037.8 | 1.535 | – | – | – | – |
| CC(C(=O)O)c1ccc(C(=O)c2ccccc2)s1 (stereo not drawn) [Tiaprofenic acid] | 0.836 | 1082.46 | 1.57 | – | – | – | – |
| CC(Cc1cccc(C(F)(F)F)c1)NCCOC(=O)c1ccccc1 (stereo not drawn) [Benfluorex] | 0.848 | 1033.89 | 1.025 | – | – | – | – |
| Cl.N=C(N=C(N)N)N1CCOCC1 [Moroxidine hydrochloride] | 1.373 | 1132.99 | 1.496 | – | – | – | – |
| COc1ccc(C(=O)NCc2cccnc2)cc1C(=O)NCc1cccnc1.O [Picotamide monohydrate] | – | – | – | -0.041 | 752.987 | 0.672 | – |
| Cc1c(OCC(F)(F)F)ccnc1C[S+]([O-])c1nc2ccccc2[nH]1 (stereo not drawn) [Lansoprazole] | 1.884 | 961.173 | 0.157 | – | – | – | – |
| CN(C)[C@@H]1C(O)=C(C(N)=O)C(=O)[C@@]2(O)C(O)=C3C(=O)c4c(O)cccc4[C@@](C)(O)[C@H]3C[C@@H]12 [Tetracycline hydrochloride] | – | – | – | 0.067 | 755.57 | 0.201 | – |
| CCC1(c2ccc(N)cc2)CCC(=O)NC1=O (stereo not drawn) [Glutethimide, para-amino] | – | – | – | 0.113 | 663.514 | -0.055 | – |
| CC(=O)O[C@H]1C(=O)[C@@]2(C)[C@H]([C@H](OC(=O)c3ccccc3)[C@]3(O)C[C@H](OC(=O)[C@H](O)[C@@H](NC(=O)c4ccccc4)c4ccccc4)C(C)=C1C3(C)C)[C@]1(OC(C)=O)CO[C@@H]1C[C@@H]2O [Paclitaxel] | – | – | – | -0.069 | 752.811 | 0.829 | – |
| CC(C)c1cccc(C(C)C)c1O [Propofol] | – | – | – | – | – | – | B-score functional assay [1]: -4.147; Ranking score [1]: 144.551; B-score binding assay [2]: -0.036 |
| CCCc1cc(C(N)=S)ccn1 [Prothionamide] | – | – | – | -0.17 | 776.121 | 2.241 | – |
| COc1ccc2[nH]cc(CCNC(C)=O)c2c1 [Melatonin] | 0.509 | 864.497 | 0.248 | – | – | – | – |
| Cn1cnc([N+](=O)[O-])c1Sc1ncnc2nc[nH]c12 [Azathioprine] | 1.292 | 1083.5 | 1.035 | – | – | – | – |
| CCN[C@H]1CN(CCCOC)S(=O)(=O)c2sc(S(N)(=O)=O)cc21 [Brinzolamide] | – | – | – | 0.266 | 792.227 | 0.124 | – |
| O=C1CN(/N=C/c2ccc(-c3ccc([N+](=O)[O-])cc3)o2)C(=O)[N-]1.[Na+] [Dantrolene sodium salt] | – | – | – | – | – | – | Ranking score [1, 3]: 342.783; B-score functional assay [1, 4]: -0.011; B-score binding assay [2, 5]: -1.319 |
| CC(=O)OCC(=O)[C@H]1CC[C@H]2[C@@H]3CC[C@H]4C[C@H](O)CC[C@]4(C)[C@H]3C(=O)C[C@]12C [Alfadolone acetate] | 0.626 | 1074.24 | 2.253 | – | – | – | – |
| COc1ccc(C(=O)c2ccccc2O)c(O)c1 [Dioxybenzone] | – | – | – | – | – | – | Ranking score [1, 3]: 401.91; B-score functional assay [1, 4]: 0.002; B-score binding assay [2, 5]: -0.95 |
| CN(C)CCC=C1c2ccccc2C=Cc2ccccc21 [Cyclobenzaprine hydrochloride] | – | – | – | -0.009 | 718.919 | 0.264 | – |
| Cc1cc(-c2ccccc2)nnc1NCCN1CCOCC1 [Minaprine dihydrochloride] | – | – | – | 1.278 | 814.509 | -0.039 | – |
| CCN(CC)CCNC(C(=O)OCCC(C)C)c1ccccc1.Cl.Cl (stereo not drawn) [Camylofine chlorhydrate] | 1.768 | 947.253 | 0.138 | – | – | – | – |

| SMILES | B-score functional assay [1, 6] | Ranking score [1, 7] | B-score binding assay [2, 8] | B-score functional assay [1, 9] | Ranking score [1, 10] | B-score binding assay [2, 11] | other results |
| --- | --- | --- | --- | --- | --- | --- | --- |
| Cc1onc(-c2c(Cl)cccc2Cl)c1C(=O)N[C@@H]1C(=O)N2[C@@H]1SC(C)(C)[C@@H]2C(=O)[O-].O.[Na+] [Dicloxacillin sodium salt hydrate] | 0.63 | 908.983 | 0.373 | – | – | – | – |
| Nc1ncnc2c1ncn2[C@@H]1O[C@H](COP(=O)(O)O)[C@@H](O)[C@H]1O.O [Adenosine 5'-monophosphate monohydrate] | 0.641 | 1091.98 | 2.827 | – | – | – | – |
| c1ccc([C@H]2CN3CCSC3=N2)cc1 [Levamisole hydrochloride] | 0.335 | 1002.84 | 1.834 | – | – | – | – |
| O=C(CCCN1CCC(O)(c2ccc(Br)cc2)CC1)c1ccc(F)cc1 [Bromperidol] | – | – | – | 0.496 | 757.533 | -0.002 | – |
| O=C(CCCN1CCN(c2ccccn2)CC1)c1ccc(F)cc1 [Azaperone] | 0.852 | 931.399 | 0.326 | – | – | – | – |
| Cc1ccccc1N1C(=O)c2cc(S(N)(=O)=O)c(Cl)cc2NC1C (stereo not drawn) [Metolazone] | 0.67 | 1031.7 | 1.32 | – | – | – | – |
| CCN(CC)Cc1cc(Nc2ccnc3cc(Cl)ccc23)ccc1O.Cl.Cl.O.O [Amodiaquin dihydrochloride dihydrate] | – | – | – | -0.477 | 658.143 | 1.445 | – |
| CCCCCCCCNC(C)C(O)c1ccc(SC(C)C)cc1 (stereo not drawn) [Suloctidil] | – | – | – | – | – | – | Ranking score [1, 3]: 345.514; B-score functional assay [1, 4]: 4.189; B-score binding assay [2, 5]: -2.148 |
| COc1cc(-c2ccc(=O)[nH]n2)ccc1OC(F)F [Zardaverine] | – | – | – | – | – | – | Ranking score [1, 3]: 379.335; B-score functional assay [1, 4]: -1.701; B-score binding assay [2, 5]: 0.49 |
| CC(=O)O[C@H]1C[C@@H]2CC[C@@H]3[C@H](CC[C@@]4(C)[C@H]3C[C@H]([N+]3(C)CCCCC3)[C@@H]4OC(C)=O)[C@@]2(C)C[C@@H]1N1CCCCC1 [Vecuronium bromide] | – | – | – | 0.006 | 708.114 | 0.155 | – |
| CCN(CC)CCOC(=O)C(c1ccccc1)c1ccccc1 [Adiphenine hydrochloride] | – | – | – | – | – | – | Ranking score [1, 3]: 440.174; B-score functional assay [1, 4]: -0.012; B-score binding assay [2, 5]: -0.701 |
| CC1CCc2cc(F)cc3c(=O)c(C(=O)O)cn1c23 (stereo not drawn) [Flumequine] | 2.117 | 855.599 | -0.028 | – | – | – | – |
| O=C1CCc2cc(OCCCCc3nnnn3C3CCCCC3)ccc2N1 [Cilostazol] | – | – | – | – | – | – | Ranking score [1, 3]: 446.637; B-score functional assay [1, 4]: -0.174; B-score binding assay [2, 5]: -0.418 |
| CCC(C)n1ncn(-c2ccc(N3CCN(c4ccc(OCC5COC(Cn6cncn6)(c6ccc(Cl)cc6Cl)O5)cc4)CC3)cc2)c1=O (stereo not drawn) [Itraconazole] | 0.058 | 871.813 | 1.124 | – | – | – | – |
| O=C(O)c1cn(-c2ccc(F)cc2)c2cc(N3CCNCC3)c(F)cc2c1=O [Sarafloxacin] | – | – | – | – | – | – | Ranking score [1, 3]: 305.771; B-score functional assay [1, 4]: -0.49; B-score binding assay [2, 5]: -0.967 |
| C=CCN1CC[C@]23c4c5ccc(O)c4O[C@H]2C(=O)CC[C@@]3(O)[C@H]1C5 [Naloxone hydrochloride] | – | – | – | – | – | – | Ranking score ([1]; combined ranking of functional and binding screening assays): 578.749; B-score functional assay ([1]; screening taurocholate uptake, 10 µM drug): -0.111; B-score binding assay [2]: 0 |
| CN(C)[C@@H]1C(O)=C(C(N)=O)C(=O)[C@@]2(O)C(O)=C3C(=O)c4c(O)ccc(Cl)c4[C@@H](O)[C@H]3C[C@@H]12 [Demeclocycline hydrochloride] | – | – | – | 0.083 | 738.496 | 0.096 | – |
| CC(C)C(=O)c1c(C(C)C)nn2ccccc12 [Ibudilast] | 0.276 | 895.497 | 0.677 | – | – | – | – |
| Cc1cc(N)c2ccccc2[n+]1CCCCCCCCCC[n+]1c(C)cc(N)c2ccccc21 [Dequalinium dichloride] | – | – | – | -0.527 | 680.714 | 3.994 | – |
| CCCCCCCN(CC)CCCC(O)c1ccc(NS(C)(=O)=O)cc1.CCCCCCCN(CC)CCCC(O)c1ccc(NS(C)(=O)=O)cc1.O=C(O)/C=C/C(=O)O (stereo not drawn) [Ibutilide fumarate] | – | – | – | 0.035 | 835.048 | 0.907 | – |
| Nc1ccc(C(=O)O)c(O)c1 [4-aminosalicylic acid] | – | – | – | – | – | – | Ranking score [1, 3]: 360.074; B-score functional assay [1, 4]: -0.405; B-score binding assay [2, 5]: -0.683 |
